Assays:
RS4;11-BCL-2 D103Y cells = assay: Cell proliferation assay (MTS), RS4;11-BCL-2 D103Y engineered cells; type: cell-based; settings: Homo sapiens, 72 h, read-out: RS4, 11 BCL2-D103Y IC50
From the text: MTS testing kit was purchased from Promega (Madison, WI, USA). The RPMI-1640, Fetal bovine serum and Penicillin-Streptomycin were purchased from BI (Biological Industries, Beit Haemek, Israel). Puromycin was purchased from Beyotime (shanghai, China). Dimethyl sulfoxide (DMSO) was purchased from Sigma (St. Louis., MO, USA). RS4;11-BCL-2 G101V (Cobioer Lot. #: CBD2021063013P4), RS4;11-BCL-2 D103E (Cobioer Lot. #: CBD2021063013P4), RS4;11-BCL-2 D103Y (Cobioer Lot. #: CBD2022012101P4) and RS4;11-BCL-2 F104L (Cobioer Lot. #: CBD2021063014P4) cells were cultured in RPMI1640 supplemented with 1 ug/mL puromycin, 100 U/mL Penicillin-Streptomycin and 10% FBS.
To investigate whether a compound is able to inhibit the activity of BCL-2 mutation in cells, a mechanism-based assay using engineered cell lines stably overexpressing BCL-2 mutation (RS4;11-BCL-2 G101V, RS4;11-BCL-2 D103E, RS4;11-BCL-2 D103Y, and RS4;11-BCL-2 F104L) was developed. In this assay, the inhibition of BCL-2 mutation was reflected by the inhibition of cell proliferation of engineered RS4;11 cells. Cells were plated into 96-well plates at optimized cell density (RS4;11-BCL-2 G101V: 5000 cells/well; RS4;11-BCL-2 D103E: 7500 cells/well; RS4;11-BCL-2 D103Y: 7500 cells/well; RS4;11-BCL-2 F104L: 5000 cells/well). Plates were incubated at 37° C., with 5% CO2 for 4 h (RS4;11-BCL-2 G101V, RS4;11-BCL-2 F104L) and 24 h (RS4;11-BCL-2 D103E, RS4;11-BCL-2 D103Y), respectively. Compounds were serially diluted and added to the plates with the final concentrations of 10000, 3333.3, 1111.1, 370.4, 123.5, 41.2, 13.7, 4.6 and 1.5 nM. Plates were incubated at 37° C., with 5% CO2 for 120 h (RS4; 11-BCL-2 G101V, RS4; 11-BCL-2 F104L) and 72 h (RS4;11-BCL-2 D103E, RS4;11-BCL-2 D103Y), respectively. 20 μl MTS was added into each well and the plates were incubated at 37° C., with 5% CO2 exactly for 2 h. The absorbance was measured by a microplate reader at 490 nm. IC50 values were calculated using GraphPad Prism 8.0 software.

RS4;11-BCL-2 D103E cells = assay: Cell proliferation assay (MTS), RS4;11-BCL-2 D103E engineered cells; type: cell-based; settings: Homo sapiens, 72 h, read-out: RS4, 11 BCL2-D103E IC50
Procedure, shortened: (§1)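 Proliferation IC50 in RS4;11 lines engineered with BCL-2 mutations, measured by MTS at 490 nm after 72 h (D103E, D103Y) or 120 h (G101V, F104L) compound treatment at 37 °C.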

RS4;11-BCL-2 G101V cells = assay: Cell proliferation assay (MTS), RS4;11-BCL-2 G101V engineered cells; type: cell-based; settings: Homo sapiens, 120 h, read-out: RS4, 11 BCL2-G101V IC50
Procedure, shortened: as §1

RS4;11-BCL-2 F104L cells = assay: Cell proliferation assay (MTS), RS4;11-BCL-2 F104L engineered cells; type: cell-based; settings: Homo sapiens, 120 h, read-out: RS4, 11 BCL2-F104L IC50
Procedure, shortened: as §1

Toledo cells = assay: Cell proliferation assay (MTS), Toledo cells; type: cell-based; settings: Homo sapiens, 72 h
Procedure, shortened: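 Toledo cells (RPMI-1640, 10% FBS) seeded at 30000 cells/well, rested 4 h, then exposed 72 h at 37 °C, 5% CO2 to compound at nine final concentrations, 1.5–10000 nM. Viability by MTS (2 h), absorbance at 490 nm. IC50 from the concentration-response.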

[1] = Pharmacokinetics assay in rats; type: in vivo; settings: rat, male Sprague-Dawley rats, po, 5 mg/kg, plasma
Method: The purpose of this study was to determine the pharmacokinetics of Examples in male Sprague-Dawley rats (Supplied by Beijing Vital River Laboratory Animal Technology Co., Ltd.) following a single intravenous bolus injection at 1 mg/kg and oral gavage (PO) administration at 5 mg/kg.
Animals in Group 1 were administered with Examples by single intravenous bolus injection at 1 mg/kg, which was formulated in 10% DMSO (Sigma, Batch #LPCOS181): 60% PEG400 (Sigma, Batch #MKCH6281): 30% water, pH 5-6 at 1 mg/mL as a solution. Animals in Group 2 were administered with Examples by single oral gavage (PO) administration at 5 mg/kg, which was formulated in 10% DMSO (Sigma, Batch #BCCD6641): 60% PEG400 (Sigma, Batch #MKCL4921): 30% water at 1 mg/mL as a solution. Blood samples were collected at 0.083, 0.25, 0.5, 1, 2, 4, 8, 12 and 24 hours post-dose. Concentrations of Examples in plasma were determined by LC/MS/MS (LC: Waters UPLC; MS: Triple Quad 6500 plus).

Row | Compound | IC50 (RS4;11-BCL-2 D103Y cells) [nM] | IC50 (RS4;11-BCL-2 D103E cells) [nM] | IC50 (RS4;11-BCL-2 G101V cells) [nM] | IC50 (RS4;11-BCL-2 F104L cells) [nM] | IC50 (Toledo cells) [nM] | AUC(0-t) [1] [ng·h/mL] | half-life [1] [h] | Cmax ([1]; read-out: Cmax/C0) [ng/mL]
1 | COc1cc(CN2CCN(C3CC4(CCN(c5ccc(C(=O)NS(=O)(=O)c6cnc(NC[C@H]7CC[C@](C)(O)CC7)c([N+](=O)[O-])c6)c(Oc6cnc7[nH]cc(F)c7c6)c5)CC4)C3)[C@H](c3ccccc3C(C)C)C2)cnc1C1CC1 [Example 255, 4-(2-((R)-4-((6-cyclopropyl-5-methoxypyridin-3-yl)methyl)-2-(2-isopropylphenyl)piperazin-1-yl)-7-azaspiro[3.5]nonan-7-yl)-2-((3-fluoro-1H-pyrrolo[2,3-b]pyridin-5-yl)oxy)-N-((6-((((1r,4r)-4-hydroxy-4-methylcyclohexyl)methyl)amino)-5-nitropyridin-3-yl)sulfonyl)benzamide] | 1 | 3 | 1 | 3 | 1 | – | – | –
2 | COc1nc2[nH]cc(F)c2cc1Oc1cc(N2CCC3(CC2)CC(N2CCN(Cc4ccc(OC(F)F)cc4)C[C@H]2c2ccccc2C(C)C)C3)ccc1C(=O)NS(=O)(=O)c1cnc(NC[C@H]2CC[C@](C)(O)CC2)c([N+](=O)[O-])c1 [Example 344, 4-(2-((R)-4-(4-(difluoromethoxy)benzyl)-2-(2-isopropylphenyl)piperazin-1-yl)-7-azaspiro[3.5]nonan-7-yl)-2-((3-fluoro-6-methoxy-1H-pyrrolo[2,3-b]pyridin-5-yl)oxy)-N-((6-((((1r,4r)-4-hydroxy-4-methylcyclohexyl)methyl)amino)-5-nitropyridin-3-yl)sulfonyl)benzamide] | 10 | 1 | 1 | 1 | 1 | 5910 | 28.9 | 406
3 | COc1ccc(CN2CCN(C3CC4(CCN(c5ccc(C(=O)NS(=O)(=O)c6cnc(NC[C@H]7CC[C@](C)(O)CC7)c([N+](=O)[O-])c6)c(Oc6cc7c(F)c[nH]c7nc6OC)c5)CC4)C3)[C@H](c3ccccc3C(C)C)C2)cc1OC [Example 7, 4-(2-((R)-4-(3,4-dimethoxybenzyl)-2-(2-isopropylphenyl)piperazin-1-yl)-7-azaspiro[3.5]nonan-7-yl)-2-((3-fluoro-6-methoxy-1H-pyrrolo[2,3-b]pyridin-5-yl)oxy)-N-((6-((((1r,4r)-4-hydroxy-4-methylcyclohexyl)methyl)amino)-5-nitropyridin-3-yl)sulfonyl)benzamide] | 9 | 2 | 1 | 1 | 1 | – | – | –
4 | COc1ccc(CN2CCN(C3CC4(CCN(c5ccc(C(=O)NS(=O)(=O)c6cnc(NC[C@H]7CC[C@](C)(O)CC7)c([N+](=O)[O-])c6)c(Oc6cc7c(F)c[nH]c7nc6OC)c5)CC4)C3)[C@H](c3ccccc3C(C)C)C2)cn1 [Example 119, 2-((3-fluoro-6-methoxy-1H-pyrrolo[2,3-b]pyridin-5-yl)oxy)-N-((6-((((1r,4r)-4-hydroxy-4-methylcyclohexyl)methyl)amino)-5-nitropyridin-3-yl)sulfonyl)-4-(2-((R)-2-(2-isopropylphenyl)-4-((6-methoxypyridin-3-yl)methyl)piperazin-1-yl)-7-azaspiro[3.5]nonan-7-yl)benzamide] | 10 | 1 | 1 | 3 | 1 | – | – | –
5 | COc1nc2[nH]cc(F)c2cc1Oc1cc(N2CCC3(CC2)CC(N2CCN(Cc4ccncc4)C[C@H]2c2ccccc2C(C)C)C3)ccc1C(=O)NS(=O)(=O)c1cnc(NC[C@H]2CC[C@](C)(O)CC2)c([N+](=O)[O-])c1 [Example 239, 2-((3-fluoro-6-methoxy-1H-pyrrolo[2,3-b]pyridin-5-yl)oxy)-N-((6-((((1r,4r)-4-hydroxy-4-methylcyclohexyl)methyl)amino)-5-nitropyridin-3-yl)sulfonyl)-4-(2-((R)-2-(2-isopropylphenyl)-4-(pyridin-4-ylmethyl)piperazin-1-yl)-7-azaspiro[3.5]nonan-7-yl)benzamide] | 8 | – | 1 | 1 | 1 | – | – | –

— patent US20250122191A1, “COMPOUNDS AS BCL-2 INHIBITORS” (Fochon Biosciences, Ltd, priority 2021, published 2025)
